Test results as given in ChEMBL document CHEMBL4808211, “Exploration and Biological Evaluation of Basic Heteromonocyclic Propanamide Derivatives as SARDs for the Treatment of Enzalutamide-Resistant Prostate Cancer” (J Med Chem, 2021).

System: MR49F
Test: animal or person
Settings: Mus musculus, po, 672 h, read-out: TGI
Description: Antitumor activity against human MR49F cells xenografted in NOD SCID NSG mouse assessed as tumor growth inhibition at 60 mg/kg/day, po measured twice weekly for 28 days relative to control

Structure (SMILES): C[C@](O)(Cn1cc(-c2ccc(F)cc2)nn1)C(=O)Nc1ccc(C#N)c(C(F)(F)F)c1
- inhibition in vivo at 60 mg/kg/day: 95%
